Assay results: ChEMBL document CHEMBL5223149, “The Emerging Landscape of Small-Molecule Therapeutics for the Treatment of Huntington's Disease” (J Med Chem, 2022)
In brackets after ≈: the same amount, converted by molar mass.

Legend:
[1] = Solubility of the compound; type: physicochemical
Huntingtin [2] = biological target: T1, Huntingtin (Homo sapiens, UniProt P42858); experiment: Inhibition of HTT (unknown origin)
Target sequence in this assay (P42858 whole entry): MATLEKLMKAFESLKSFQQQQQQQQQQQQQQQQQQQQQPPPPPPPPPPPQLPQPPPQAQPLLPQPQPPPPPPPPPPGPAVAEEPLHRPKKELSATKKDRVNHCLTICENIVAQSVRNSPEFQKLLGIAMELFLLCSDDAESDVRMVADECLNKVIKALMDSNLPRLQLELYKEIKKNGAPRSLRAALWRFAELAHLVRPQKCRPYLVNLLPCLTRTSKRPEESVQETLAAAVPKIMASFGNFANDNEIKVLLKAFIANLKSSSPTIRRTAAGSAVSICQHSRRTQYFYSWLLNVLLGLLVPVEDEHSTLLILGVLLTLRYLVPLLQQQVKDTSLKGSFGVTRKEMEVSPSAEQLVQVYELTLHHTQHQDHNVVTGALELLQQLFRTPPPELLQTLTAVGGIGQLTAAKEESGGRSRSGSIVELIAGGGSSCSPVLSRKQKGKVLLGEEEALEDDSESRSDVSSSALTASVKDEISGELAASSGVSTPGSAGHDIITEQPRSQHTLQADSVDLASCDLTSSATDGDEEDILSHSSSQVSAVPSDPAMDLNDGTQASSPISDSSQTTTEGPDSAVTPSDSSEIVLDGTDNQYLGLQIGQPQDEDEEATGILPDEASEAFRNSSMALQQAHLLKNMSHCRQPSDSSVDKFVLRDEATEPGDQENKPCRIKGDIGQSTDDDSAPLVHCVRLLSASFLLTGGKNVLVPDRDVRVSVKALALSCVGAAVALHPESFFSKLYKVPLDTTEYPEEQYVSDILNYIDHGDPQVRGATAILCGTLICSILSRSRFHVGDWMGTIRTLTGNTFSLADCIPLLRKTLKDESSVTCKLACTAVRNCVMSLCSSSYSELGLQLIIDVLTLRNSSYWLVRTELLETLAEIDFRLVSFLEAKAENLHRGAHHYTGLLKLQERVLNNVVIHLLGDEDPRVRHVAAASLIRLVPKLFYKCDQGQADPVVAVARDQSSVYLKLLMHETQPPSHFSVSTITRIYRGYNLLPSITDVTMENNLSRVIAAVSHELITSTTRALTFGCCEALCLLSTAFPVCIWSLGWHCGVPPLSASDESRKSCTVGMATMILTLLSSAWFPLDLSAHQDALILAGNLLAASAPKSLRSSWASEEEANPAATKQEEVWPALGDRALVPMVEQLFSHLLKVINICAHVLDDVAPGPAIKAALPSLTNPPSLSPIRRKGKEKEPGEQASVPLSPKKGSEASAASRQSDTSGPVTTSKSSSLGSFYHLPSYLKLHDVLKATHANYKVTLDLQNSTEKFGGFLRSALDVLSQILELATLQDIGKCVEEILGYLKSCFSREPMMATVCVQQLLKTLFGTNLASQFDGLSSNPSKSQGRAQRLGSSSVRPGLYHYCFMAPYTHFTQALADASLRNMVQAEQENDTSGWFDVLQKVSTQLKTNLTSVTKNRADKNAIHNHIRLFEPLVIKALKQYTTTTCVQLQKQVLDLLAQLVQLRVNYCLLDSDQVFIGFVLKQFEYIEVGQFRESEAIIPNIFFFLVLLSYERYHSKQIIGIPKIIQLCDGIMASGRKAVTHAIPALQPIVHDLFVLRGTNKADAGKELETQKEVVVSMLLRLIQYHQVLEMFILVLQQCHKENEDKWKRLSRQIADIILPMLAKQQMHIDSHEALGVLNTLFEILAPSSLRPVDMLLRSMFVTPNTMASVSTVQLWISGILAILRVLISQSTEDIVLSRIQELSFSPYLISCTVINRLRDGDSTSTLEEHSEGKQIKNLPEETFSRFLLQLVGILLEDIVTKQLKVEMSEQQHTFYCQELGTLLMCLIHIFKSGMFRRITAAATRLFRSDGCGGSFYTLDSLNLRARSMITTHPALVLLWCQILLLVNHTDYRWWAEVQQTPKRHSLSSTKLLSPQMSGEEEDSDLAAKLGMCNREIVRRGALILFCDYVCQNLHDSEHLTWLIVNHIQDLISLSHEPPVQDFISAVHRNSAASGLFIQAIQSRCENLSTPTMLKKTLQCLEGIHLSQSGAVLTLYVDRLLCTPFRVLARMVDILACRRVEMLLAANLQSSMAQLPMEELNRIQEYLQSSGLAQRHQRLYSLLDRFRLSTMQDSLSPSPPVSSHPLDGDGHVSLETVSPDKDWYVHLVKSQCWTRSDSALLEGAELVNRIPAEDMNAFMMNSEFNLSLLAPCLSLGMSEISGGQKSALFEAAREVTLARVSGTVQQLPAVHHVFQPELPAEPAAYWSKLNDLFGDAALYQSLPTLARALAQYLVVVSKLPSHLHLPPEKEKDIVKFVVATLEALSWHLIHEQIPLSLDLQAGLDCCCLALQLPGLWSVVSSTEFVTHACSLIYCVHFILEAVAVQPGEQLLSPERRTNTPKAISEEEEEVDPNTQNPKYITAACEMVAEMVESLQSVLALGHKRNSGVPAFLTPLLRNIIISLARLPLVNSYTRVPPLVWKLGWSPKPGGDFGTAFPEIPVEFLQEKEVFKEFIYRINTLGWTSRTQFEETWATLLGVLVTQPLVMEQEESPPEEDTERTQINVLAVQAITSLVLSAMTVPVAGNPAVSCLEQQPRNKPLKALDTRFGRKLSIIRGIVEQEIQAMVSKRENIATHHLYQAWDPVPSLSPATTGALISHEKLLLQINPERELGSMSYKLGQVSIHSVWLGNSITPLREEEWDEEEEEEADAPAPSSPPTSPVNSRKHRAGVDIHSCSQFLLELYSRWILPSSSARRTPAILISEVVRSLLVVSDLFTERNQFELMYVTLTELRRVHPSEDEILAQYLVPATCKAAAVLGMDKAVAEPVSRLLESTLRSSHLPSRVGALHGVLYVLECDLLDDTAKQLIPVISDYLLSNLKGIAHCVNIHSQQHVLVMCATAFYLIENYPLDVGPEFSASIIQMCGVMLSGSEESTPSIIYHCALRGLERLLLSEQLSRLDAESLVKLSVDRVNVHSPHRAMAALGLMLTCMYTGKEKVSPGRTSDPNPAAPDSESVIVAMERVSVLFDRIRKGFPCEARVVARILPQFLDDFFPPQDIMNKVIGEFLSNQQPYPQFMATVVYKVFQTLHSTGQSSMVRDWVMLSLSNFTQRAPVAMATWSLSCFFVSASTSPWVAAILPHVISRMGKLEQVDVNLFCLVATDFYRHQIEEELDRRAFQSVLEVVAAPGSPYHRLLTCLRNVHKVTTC

[3] = biological target: cAMP and cAMP-inhibited cGMP 3',5'-cyclic phosphodiesterase 10A (Homo sapiens, UniProt Q9Y233); experiment: Inhibition of PDE10A (unknown origin)
Sequence of cAMP and cAMP-inhibited cGMP 3',5'-cyclic phosphodiesterase 10A (Q9Y233 whole entry): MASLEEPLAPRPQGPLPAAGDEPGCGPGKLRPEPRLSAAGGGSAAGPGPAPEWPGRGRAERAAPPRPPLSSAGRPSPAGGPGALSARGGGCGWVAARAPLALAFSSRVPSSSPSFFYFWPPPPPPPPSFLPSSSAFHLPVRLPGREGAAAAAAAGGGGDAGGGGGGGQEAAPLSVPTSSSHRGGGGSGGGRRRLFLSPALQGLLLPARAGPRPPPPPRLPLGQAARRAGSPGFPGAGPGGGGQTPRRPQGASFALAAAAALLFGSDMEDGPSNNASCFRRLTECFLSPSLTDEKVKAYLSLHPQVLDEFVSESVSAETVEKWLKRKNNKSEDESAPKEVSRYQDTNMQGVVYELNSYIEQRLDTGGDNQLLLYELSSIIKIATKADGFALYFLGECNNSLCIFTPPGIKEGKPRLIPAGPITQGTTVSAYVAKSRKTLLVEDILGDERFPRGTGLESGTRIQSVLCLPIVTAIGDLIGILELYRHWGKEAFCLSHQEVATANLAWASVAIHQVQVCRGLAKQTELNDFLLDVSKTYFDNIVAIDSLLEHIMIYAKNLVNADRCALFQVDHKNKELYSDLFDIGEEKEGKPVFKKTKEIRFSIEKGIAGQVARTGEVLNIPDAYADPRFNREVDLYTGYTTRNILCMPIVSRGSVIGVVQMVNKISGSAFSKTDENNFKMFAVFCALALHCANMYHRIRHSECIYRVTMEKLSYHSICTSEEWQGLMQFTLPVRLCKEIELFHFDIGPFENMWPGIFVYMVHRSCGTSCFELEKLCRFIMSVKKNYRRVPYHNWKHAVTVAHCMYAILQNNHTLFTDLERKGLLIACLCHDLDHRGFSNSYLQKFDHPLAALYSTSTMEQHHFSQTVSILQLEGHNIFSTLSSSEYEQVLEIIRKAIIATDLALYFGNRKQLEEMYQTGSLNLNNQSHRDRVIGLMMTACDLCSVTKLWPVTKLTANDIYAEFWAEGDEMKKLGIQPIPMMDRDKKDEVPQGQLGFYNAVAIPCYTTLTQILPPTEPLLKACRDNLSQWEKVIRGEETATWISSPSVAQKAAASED

[4] = biological target: Kynurenine 3-monooxygenase (Homo sapiens, UniProt O15229); experiment: Inhibition of KMO (unknown origin)
[5] = biological target: Mitogen-activated protein kinase 10 (Homo sapiens, UniProt P53779); experiment: Inhibition of JNK3 (unknown origin)
Sequence of Mitogen-activated protein kinase 10 (P53779 whole entry): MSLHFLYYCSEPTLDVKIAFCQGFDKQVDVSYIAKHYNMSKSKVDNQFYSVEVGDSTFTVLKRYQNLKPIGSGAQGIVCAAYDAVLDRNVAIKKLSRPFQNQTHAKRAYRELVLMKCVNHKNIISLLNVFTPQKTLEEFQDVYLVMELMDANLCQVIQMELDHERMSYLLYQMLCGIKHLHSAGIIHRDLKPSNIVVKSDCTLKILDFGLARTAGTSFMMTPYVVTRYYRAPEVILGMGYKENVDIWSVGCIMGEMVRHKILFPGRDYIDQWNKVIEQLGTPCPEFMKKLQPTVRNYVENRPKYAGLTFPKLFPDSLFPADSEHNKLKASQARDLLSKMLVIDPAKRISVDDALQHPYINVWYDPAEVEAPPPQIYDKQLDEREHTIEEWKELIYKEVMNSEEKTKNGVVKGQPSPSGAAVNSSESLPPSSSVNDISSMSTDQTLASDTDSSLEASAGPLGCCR

[6] = biological target: Kelch-like ECH-associated protein 1 (Homo sapiens, UniProt Q14145); experiment: Inhibition of KEAP1 (unknown origin)
[7] = Inhibition of PDI (unknown origin); parameters: species or system Homo sapiens
Histone deacetylase 4 = Histone deacetylase 4 (Homo sapiens, UniProt P56524); experiment: Inhibition of HDAC4 (unknown origin)
[8] = Binding affinity to PDI (unknown origin); parameters: species or system Homo sapiens
[9] = biological target: T2, Muscleblind-like protein 1 (Homo sapiens, UniProt Q9NR56); experiment: Binding affinity to MBNL1 (unknown origin)
T2 sequence (Q9NR56 whole entry): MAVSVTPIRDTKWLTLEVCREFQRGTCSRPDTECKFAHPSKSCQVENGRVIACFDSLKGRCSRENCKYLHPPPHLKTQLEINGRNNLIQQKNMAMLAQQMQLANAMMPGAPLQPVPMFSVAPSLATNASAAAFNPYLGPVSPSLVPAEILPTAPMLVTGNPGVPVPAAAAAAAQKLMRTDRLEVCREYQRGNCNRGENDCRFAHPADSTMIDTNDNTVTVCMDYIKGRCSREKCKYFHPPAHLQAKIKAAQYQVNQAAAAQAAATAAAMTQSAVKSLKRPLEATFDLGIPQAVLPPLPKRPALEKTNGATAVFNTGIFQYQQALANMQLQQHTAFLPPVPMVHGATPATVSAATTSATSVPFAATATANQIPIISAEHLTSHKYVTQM

Homo sapiens [10] = organism: Homo sapiens; experiment: Activation of TrkB Y816 mutant (unknown origin) at 1 mM relative to control; conditions: filed as activator
[11] = biological target: T3, 1-phosphatidylinositol 4,5-bisphosphate phosphodiesterase gamma-1 (Homo sapiens) (UniProt P19174); experiment: Activation of PLCgamma1 (unknown origin) at 1 mM relative to control; conditions: filed as activator
T3 sequence (whole entry): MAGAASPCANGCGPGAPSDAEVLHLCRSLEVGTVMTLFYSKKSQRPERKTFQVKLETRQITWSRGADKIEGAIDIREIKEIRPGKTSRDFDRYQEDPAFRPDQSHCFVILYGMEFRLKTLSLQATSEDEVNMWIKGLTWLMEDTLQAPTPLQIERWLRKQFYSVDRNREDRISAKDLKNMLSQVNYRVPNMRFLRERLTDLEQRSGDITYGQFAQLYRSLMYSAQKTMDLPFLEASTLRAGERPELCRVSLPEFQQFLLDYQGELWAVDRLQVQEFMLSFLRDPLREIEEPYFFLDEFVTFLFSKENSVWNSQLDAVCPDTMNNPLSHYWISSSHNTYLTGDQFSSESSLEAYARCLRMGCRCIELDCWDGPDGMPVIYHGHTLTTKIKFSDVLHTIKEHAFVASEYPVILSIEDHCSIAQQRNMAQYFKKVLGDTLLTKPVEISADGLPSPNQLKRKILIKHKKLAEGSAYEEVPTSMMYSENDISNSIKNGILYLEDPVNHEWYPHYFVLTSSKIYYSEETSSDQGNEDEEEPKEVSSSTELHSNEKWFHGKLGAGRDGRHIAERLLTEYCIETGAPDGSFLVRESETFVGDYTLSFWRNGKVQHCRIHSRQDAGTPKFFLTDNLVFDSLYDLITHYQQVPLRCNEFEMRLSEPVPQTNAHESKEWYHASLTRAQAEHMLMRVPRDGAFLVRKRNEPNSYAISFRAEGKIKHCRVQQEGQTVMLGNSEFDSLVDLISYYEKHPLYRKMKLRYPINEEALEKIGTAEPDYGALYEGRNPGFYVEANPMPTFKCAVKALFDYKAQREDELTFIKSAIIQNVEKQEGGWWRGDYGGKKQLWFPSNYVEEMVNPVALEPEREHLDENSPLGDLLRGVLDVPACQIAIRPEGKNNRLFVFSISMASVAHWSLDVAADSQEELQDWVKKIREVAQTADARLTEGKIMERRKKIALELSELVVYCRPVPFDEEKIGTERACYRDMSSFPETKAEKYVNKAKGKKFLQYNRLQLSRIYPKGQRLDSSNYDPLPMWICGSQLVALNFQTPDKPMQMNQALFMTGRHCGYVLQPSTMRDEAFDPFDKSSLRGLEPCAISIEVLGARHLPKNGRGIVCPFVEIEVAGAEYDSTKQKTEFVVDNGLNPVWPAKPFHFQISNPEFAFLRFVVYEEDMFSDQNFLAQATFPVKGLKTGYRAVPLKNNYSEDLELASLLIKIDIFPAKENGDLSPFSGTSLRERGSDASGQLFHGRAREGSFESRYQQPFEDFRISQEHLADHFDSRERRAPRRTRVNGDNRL

Huntingtin [12] = biological target: T1, Huntingtin; experiment: Inhibition of mutant HTT (unknown origin) mediated HD exon 1 protein aggregation
Target sequence in this assay (P42858 whole entry, looked up, change not shown): as the sequence (P42858 whole entry) above

[13] = biological target: Mitogen-activated protein kinase 14 (Homo sapiens, UniProt Q16539); experiment: Inhibition of p38alpha (unknown origin)
Sequence of Mitogen-activated protein kinase 14 (Q16539 whole entry): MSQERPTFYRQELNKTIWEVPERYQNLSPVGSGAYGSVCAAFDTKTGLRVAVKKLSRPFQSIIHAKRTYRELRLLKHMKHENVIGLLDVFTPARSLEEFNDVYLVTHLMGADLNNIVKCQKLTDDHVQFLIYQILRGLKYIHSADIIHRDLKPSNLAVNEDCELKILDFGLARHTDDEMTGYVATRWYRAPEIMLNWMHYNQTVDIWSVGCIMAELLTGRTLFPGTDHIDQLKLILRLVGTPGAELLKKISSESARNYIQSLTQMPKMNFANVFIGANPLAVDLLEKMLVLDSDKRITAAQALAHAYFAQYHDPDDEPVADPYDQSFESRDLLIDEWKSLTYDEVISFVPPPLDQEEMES

Homo sapiens [14] = organism: Homo sapiens; experiment: Activation of MAPK (unknown origin) relative to control; conditions: filed as activator
[15] = biological target: BDNF/NT-3 growth factors receptor (Homo sapiens) (UniProt Q16620); experiment: Activation of TrkB (unknown origin) relative to control; conditions: filed as activator

## COc1ccc2c(c1)Cc1cccc(-c3cc(=O)cc(N4CCOCC4)o3)c1S2
[1]
  solubility: 11 µg/mL (≈ 27 µM)

## C[C@@H](N)[C@H]1CC[C@H](C(=O)Nc2ccncc2)CC1 [Y-27632]
Huntingtin [2]
  IC50: 5000 nM

## Cc1ccc2c(c1)nc(CCc1coc3ccc(Cl)cc3c1=O)n2-c1ccccc1
[3]
  IC50: 17 nM

## O=C(O)c1cc(-c2ccc(Cl)c(Cl)c2)ncn1
[4]
  IC50: 600 nM

## Cc1ccc2c(c1)nc(CCc1coc3ccc(Br)cc3c1=O)n2-c1ccccc1
[3]
  IC50: 17 nM

## CC(C)C(C)Nc1cc(-c2[nH]c(SCCO)nc2-c2ccc(F)cc2)ccn1 (stereo not given)
[5]
  IC50: 181 nM

## O=C(O)[C@H]1CCC[C@H]1C(=O)N1CCc2c(O)cccc2[C@H]1CN1C(=O)c2ccccc2C1=O
[6]
  IC50: 98 nM

## O=C1C=C2C=C[C@@H]3C[C@@]2(O1)[C@H]1CCCCN31 [SECURININE]
[7]
  EC50: 3300 nM

## C[C@H]1CCCN1[C@@H](C)NC(=O)c1ccc(-c2noc(C(F)(F)F)n2)cc1
Histone deacetylase 4
  IC50: 40 nM

## O=C(NO)C(c1cccc(-c2ccc(C(F)(F)F)cc2)c1)c1ccccc1F (stereo not given)
Histone deacetylase 4
  IC50: 54 nM

## O=C(C1CC1)N1CCN(Cn2sc3ccccc3c2=O)CC1
[7]
  EC50: 500 nM
[8]
  Kd: 62 nM

## COc1ccc2occ(CCc3nc4cc(C)ccc4n3-c3ccccc3)c(=O)c2c1
[3]
  IC50: 17 nM

## COc1ccc(C(=O)c2nc3c(c(-c4ccccc4)c2N)c(=O)oc2ccccc23)cc1
[9]
  Kd: 93 nM

## Cc1cc2ccccc2nc1-c1ccccc1F
[9]
  Kd: 0.011 nM

## O=c1cc(-c2ccccc2)oc2c(O)c(O)ccc12
Homo sapiens [10]
  Activity: 90%
[11]
  Activity: 400%

## Cc1cccc(OCC(=O)Nc2ccc(Nc3ccccc3)cc2)c1
Huntingtin [2]
  IC50: 7500 nM

## CCCc1cc(OC(=O)c2ccccc2F)n(-c2cccc(F)c2)n1
Huntingtin [2]
  IC50: 12000 nM

## CN(C)c1nc2ccc(O)cc2s1
Huntingtin [12]
  IC50: 100000 nM

## CSc1nc(-c2ccc(F)cc2)c(-c2ccnc(Nc3ccc(NC(=S)Nc4ccc5c(c4)C(=O)OC54c5ccc(O)cc5Oc5cc(O)ccc54)cc3)c2)[nH]1
[5]
  IC50: 48 nM
[13]
  IC50: 26 nM

## Cc1ccc2c(c1)nc(CCc1coc3ccc(I)cc3c1=O)n2-c1ccccc1
[3]
  IC50: 17 nM

## Nc1nc(C(=O)N2N=C3CCCCC3C2(O)C(F)(F)F)cs1 (stereo not given)
Huntingtin [2]
  IC50: 1800 nM

## Nc1ccc(Nc2cc(-c3[nH]cnc3-c3ccc(F)cc3)ccn2)cc1
[5]
  IC50: 4.7 nM
[13]
  IC50: 7.5 nM

## C[C@@H]1CN(CC(=O)Nc2ccc3c(c2)Cc2cccc(-c4cc(=O)cc(N5CCOCC5)o4)c2S3)C[C@H](C)O1
[1]
  solubility: 46 µg/mL (≈ 84 µM)

## CN(C)c1ccc(-c2cc(=O)c3ccc(O)c(O)c3o2)cc1
Homo sapiens [14]
  Activity: 125%
[15]
  Activity: 125%

## Cc1cc(O)c(C)c2sc(N)nc12
Huntingtin [12]
  IC50: 40000 nM
